Laboratory results from patent US20240293365A1, “METHODS FOR TREATING AND AMELIORATING T CELL RELATED DISEASES” (The Regents of the University of California, priority 2021, published 2024).

What follows are compounds tested against T1, ZAP70 kinase (Homo sapiens, UniProt P43403) (assay: saFRET-HTDS: ZAP70 saFRET biosensor screening of a 96-member kinase inhibitor library in HEK293 cells). Conditions: 96-member kinase inhibitor library, 10 μM, FIG. 2D.
T1 construct: The FRET change is mediated by the kinase domain; saFRET biosensor module (FRET pair and sensing unit); expressed in transfected cells; host or cells: HEK293
T1 sequence (P43403 338-600 limits assumed): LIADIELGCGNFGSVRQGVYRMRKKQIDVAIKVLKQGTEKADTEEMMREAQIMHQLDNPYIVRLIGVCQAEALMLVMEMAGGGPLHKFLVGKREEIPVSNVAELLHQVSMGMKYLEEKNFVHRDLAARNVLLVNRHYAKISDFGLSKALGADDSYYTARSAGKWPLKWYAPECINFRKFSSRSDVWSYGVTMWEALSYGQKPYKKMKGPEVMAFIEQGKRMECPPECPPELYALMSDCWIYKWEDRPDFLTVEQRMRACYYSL
Assay type: cell-based
Protocol: We first screened a 96-member kinase inhibitor library to identify efficient inhibitors of ZAP70 kinase. […] After 40 minutes of incubation with inhibitors, the cells were imaged, and the FRET ratio changes of individual inhibitors compared to the solvent control were calculated to identify promising candidates after this primary endpoint screening (FIG. 2). We further exploited a control biosensor with a kinase-dead domain (saFRETkd) for counter screening to eliminate false-positive hits due to auto-fluorescence or other non-specific effects (1).
C, Schematics of saFRET assay in HEK293 cells.
A, Schematics of the high throughput drug screening platform. First, the cells cultured in 96-well glass-bottom plate were treated either with DMSO or inhibitors from the kinase inhibitor library. After 40 minutes of incubation, the cells were imaged, and the FRET ratio change compared to the control cell was calculated.

Row | SMILES | top 10 selected inhibitors of the saFRET screening
1 | NC1CCCN(c2c(/C=C3/SC(=O)NC3=O)cccc2-c2ccccc2)C1 (stereo not drawn) [AZD 1208] | top 10
2 | NC(=O)Nc1cc(-c2cccc(F)c2)sc1C(=O)N[C@H]1CCCNC1 [AZD 7762] | top 10
3 | CCn1c(=O)c(-c2ccc(-c3cncs3)cc2Cl)cc2cnc(Nc3ccc(N4CCN(C)CC4)cc3)nc21 [FRAX 597] | top 10
4 | CNC(=O)c1ccccc1Nc1nc(Nc2ccc(N3CCOCC3)cc2OC)ncc1Cl [NVP-TAE226] | top 10
5 | COc1ccc2cc(-c3nc(-c4ccc([S+](C)[O-])cc4)[nH]c3-c3ccncc3)ccc2c1 (stereo not drawn) [Tie2 kinase inhibitor] | top 10
6 | CN[C@@H]1C[C@H]2O[C@@](C)([C@@H]1OC)n1c3ccccc3c3c4c(c5c6ccccc6n2c5c31)C(=O)NC4 [staurosporine] | top 10

Second part, the compound after the results:

Row | top 10 selected inhibitors of the saFRET screening | SMILES
7 | top 10 | Cc1[nH]c(/C=C2\C(=O)Nc3ccc(S(=O)(=O)Cc4c(Cl)cccc4Cl)cc32)c(C)c1C(=O)N1CCC[C@@H]1CN1CCCC1 [PHA-665752]
8 | top 10 | COc1cc2c(Nc3ccc(NC(=O)c4ccccc4)cc3)ncnc2cc1OCCCN1CCOCC1 [ZM 447439]

Same assay, conditions: inhibitor 10 μM, 40 minutes incubation

Row | SMILES | inhibition of ZAP70 kinase domain-mediated activation of saFRET biosensor (FRET ratio change vs solvent control)
9 | Cn1cc(-c2nc(N[C@@H]3CCCC[C@@H]3N)c(F)c3c2C(=O)NC3)cn1 [TAK-659] | relatively ineffective
